Results: paper PMC12507957 (Drug Delivery and Translational Research, 2025)
Like-named read-outs stand apart in the source and are kept apart here.

Columns and labels:
[1] = Mass balance studies after 48-h skin permeation of MTG in solvents; type: in vitro ADME, porcine; details: for recovery at 48 h, 5 %w/v: pig
Experimental: The in vitro permeation study was performed in triplicate using Franz diffusion cell apparatus with a diffusion area of ~ 0.8 cm^2 and a receptor volume of ~ 3 mL. The porcine skin was thawed at room temperature and cut into an appropriate size before mounting on the Franz diffusion cells. The receptor compartment was filled with PBS containing 0.02%w/v of sodium azide and a selected antioxidant. The Franz diffusion cells were placed into a water bath to maintain the skin temperature at 32 ± 0.5 °C. […] After 48-h permeation studies, the mass balance studies were performed.
Subsequently, the surface of the skin was washed twice with 500 μL of methanol before adding to the same Eppendorf tube containing the cotton buds. The skin was removed from the dissembled Franz diffusion cell and cut into pieces before placing in another Eppendorf tube containing 1 mL of methanol. All samples were vortexed and analysed using HPLC (Sect. HPLC analysis).
Samples were analysed using Shimadzu liquid chromatographic system (Kyoto, Japan) with SPD-20A UV–vis detector set at 254 nm. A reverse phase ZORBAX Eclipse Plus C18 column (Agilent Technologies, 150 × 4.6 mm ID × 3.5 μm) coupled with a C18 guard column (Phenomenex SecurityGuard™, 4 × 3.0 mm ID × 5 μm) was employed as the stationary phase. A gradient elution method with acetonitrile and 0.1%v/v of formic acid as the mobile phase (30:70 to 70:30 (v/v) over 1 min and held until 4 min; then returned to 30:70 (v/v) from 4 to 6 min and held up until 10 min) at a flow rate of 1.2 mL/min was used. The injection volume was set at 100 μL and the total run time was 10 min with a retention time of ~ 4 min.

[2] = beagle dogs; cited from earlier work
[3] = 5%w/v MTG in DMSO, receptor PBS with 0.01%w/v ascorbic acid (DMSO-AA), 48 h
[4] = 5%w/v MTG in Labrasol, receptor PBS with 0.01%w/v ascorbic acid (Labrasol-AA), 48 h
[5] = 5%w/v MTG in Labrasol, receptor PBS without ascorbic acid, 48 h
[6] = 5%w/v MTG in Lauroglycol, receptor PBS with 0.01%w/v ascorbic acid (Lauroglycol-AA), 48 h
[7] = 5%w/v MTG in Lauroglycol, receptor PBS without ascorbic acid, 48 h
[8] = 5%w/v MTG in Maisine, receptor PBS with 0.01%w/v ascorbic acid (Maisine-AA), 48 h
[9] = 5%w/v MTG in Maisine, receptor PBS without ascorbic acid, 48 h
[10] = 5%w/v MTG in PG, receptor PBS with 0.01%w/v ascorbic acid (PG-AA), 48 h
[11] = 5%w/v MTG in Transcutol, receptor PBS with 0.01%w/v ascorbic acid (Transcutol-AA), 48 h
[12] = 5%w/v MTG in Transcutol, receptor PBS without ascorbic acid, 48 h

## CC[C@@H]1CN2CCc3c([nH]c4cccc(OC)c34)[C@@H]2C[C@@H]1/C(=C\OC)C(=O)OC [MTG, mitragynine]
[1]; [3]
  Permeation (%): 0.77 ± 0.12%
  Skin extraction: 0.91 ± 0.19%
  Washing (on skin surface): 48.69 ± 0.86%
[1]; [4]
  Permeation (%): 0.08 ± 0.05%
  Skin extraction: 3.23 ± 1.80%
  Washing (on skin surface): 70.50 ± 5.24%
[1]; [5]
  Permeation (%): 0.07 ± 0.07%
  Skin extraction: 3.67 ± 0.45%
  Washing (on skin surface): 65.82 ± 5.20%
[1]; [6]
  Permeation (%): 0.18 ± 0.12%
  Skin extraction: 1.96 ± 1.22%
  Washing (on skin surface): 57.28 ± 15.05%
[1]; [7]
  Permeation (%): 0.04 ± 0.01%
  Skin extraction: 0.52 ± 0.38%
  Washing (on skin surface): 66.42 ± 2.26%
[1]; [8]
  Permeation (%): 0.42 ± 0.13%
  Skin extraction: 1.34 ± 0.55%
  Washing (on skin surface): 60.12 ± 1.46%
[1]; [9]
  Permeation (%): 0.11 ± 0.10%
  Skin extraction: 0.45 ± 0.18%
  Washing (on skin surface): 61.67 ± 5.42%
[1]; [10]
  Permeation (%): 0.30 ± 0.11%
  Skin extraction: 1.04 ± 0.20%
  Washing (on skin surface): 45.95 ± 5.07%
[1]; [11]
  Permeation (%): 0.51 ± 0.22%
  Skin extraction: 2.29 ± 0.57%
  Washing (on skin surface): 50.98 ± 9.49%
[1]; [12]
  Permeation (%): 0.19 ± 0.07%
  Skin extraction: 2.08 ± 1.11%
  Washing (on skin surface): 71.94 ± 8.01%
[1]; 5%w/v MTG in DMSO, receptor PBS with 0.01%w/v ascorbic acid (DMSO-AA), 48 h, read-out: Total percentage (mass balance recovery)
  recovery at 48 h, 5 %w/v: 50.7 ± 1.17%
[1]; 5%w/v MTG in Labrasol, receptor PBS with 0.01%w/v ascorbic acid (Labrasol-AA), 48 h, read-out: Total percentage (mass balance recovery)
  recovery at 48 h, 5 %w/v: 75.7 ± 7.09%
[1]; 5%w/v MTG in Labrasol, receptor PBS without ascorbic acid, 48 h, read-out: Total percentage (mass balance recovery)
  recovery at 48 h, 5 %w/v: 70.1 ± 5.72%
[1]; 5%w/v MTG in Lauroglycol, receptor PBS without ascorbic acid, 48 h, read-out: Total percentage (mass balance recovery)
  recovery at 48 h, 5 %w/v: 67.4 ± 2.65%
[1]; 5%w/v MTG in PG, receptor PBS with 0.01%w/v ascorbic acid (PG-AA), 48 h, read-out: Total percentage (mass balance recovery)
  recovery at 48 h, 5 %w/v: 47.6 ± 5.37%
[1]; 5%w/v MTG in Transcutol, receptor PBS without ascorbic acid, 48 h, read-out: Total percentage (mass balance recovery)
  recovery at 48 h, 5 %w/v: 75.4 ± 9.19%
[1]; Mitragynine recovery in mass balance studies, 5%w/v in single solvent systems
  recovery at 48 h, 5 %w/v: < 80%
[2]
  Oral bioavailability: 69.6%
